In patent US6967196B1, “Sulfonamide compounds and uses thereof” (Bristol-Myers Squibb Company, priority 1999, dated 2005) one finds IC50 data, which are given here for 31 compounds.

Each structure is given as a SMILES string. Where a name gives a salt, the structure may show the parent alone.

The first assay relates to amyloid β production in transfected H4 (human neuroglioma) cells stably expressing APP constructs. In words: In vitro cell-based assay of inhibitors of amyloid β production (ELISA). The following applies: Homo sapiens, 16 h, transfected H4 cells stably expressing APP; approx. 16 h incubation; amyloid β in medium by ELISA; read-out: ACTIVITY (IC50, inhibition of amyloid β production). An outline of the steps: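 Sandwich ELISA read-out: Aβ in conditioned medium captured via C-terminal epitope mAb, detected with N-terminus-specific rabbit polyclonal, quantified from a standard curve. Compounds 10-100 μM, ~16 h exposure. Active = ≥50% inhibition vs control without significant cytotoxicity; dose-response follows.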
For `O=S(=O)(c1ccc(Cl)cc1)N(Cc1ccccc1OCCC1CCCCN1Cc1ccccc1I)c1cc(F)ccc1F` (stereo not shown) [Example 672, 4-chloro-N-(2,5-difluorophenyl)-N-(2-{2-[1-(2-iodobenzyl)-2-piperidinyl]ethoxy}benzyl)benzenesulfonamide], the IC50 lay in the range of 100 to 500 nM.

For the compound `O=[N+]([O-])c1ccc([S+]([O-])CCCOc2ccccc2CN(c2cc(F)ccc2F)S(=O)(=O)c2ccc(Cl)cc2)cc1` (stereo not shown) [Example 689, 4-chloro-N-(2,5-difluorophenyl)-N-(2-{3-[(4-nitrophenyl)sulfinyl]propoxy}benzyl)benzenesulfonamide], the half-maximal inhibitory concentration (IC50) fell in the range of 100 to 500 nM.

On to `CC(c1ccccc1OCCCN(C)S(=O)(=O)c1ccc(I)cc1)N(c1cc(F)ccc1F)S(=O)(=O)c1ccc(Cl)cc1` (stereo not shown) [Example 692, 4-chloro-N-(2,5-difluorophenyl)-N-[1-(2-{3-[[(4-iodophenyl)sulfonyl](methyl)amino]propoxy}phenyl)ethyl]benzenesulfonamide], for which the IC50 was 100 to 500 nM.

As to `CC(C)NC(=O)N(C)CCOc1ccccc1C(C)N(c1cc(F)ccc1F)S(=O)(=O)c1ccc(Cl)cc1` (stereo not shown) [Example 695, 4-chloro-N-(2,5-difluorophenyl)-N-[1-(2-{2-[[(isopropylamino)carbonyl](methyl)amino]ethoxy}phenyl)ethyl]benzenesulfonamide], the IC50 lay within 100 to 500 nM.

As to `CCN(CC)C(=O)N(CC)CCOc1ccccc1C(C)N(c1cc(F)ccc1F)S(=O)(=O)c1ccc(Cl)cc1` (stereo not shown) [Example 698, 4-chloro-N-[1-(2-{2-[[(diethylamino)carbonyl](ethyl)amino]ethoxy}phenyl)ethyl]-N-(2,5-difluorophenyl)benzenesulfonamide], the IC50 fell in the range of 100 to 500 nM.

`O=S(=O)(c1ccc(Cl)cc1)N(Cc1ccccc1OCCC[S+]([O-])c1ccccc1)c1cc(F)ccc1F` (stereo not shown) [Example 702, 4-chloro-N-(2,5-difluorophenyl)-N-{2-[3-(phenylsulfinyl)propoxy]benzyl}benzenesulfonamide]: the IC50 lay within 100 to 500 nM.

Regarding `O=C1CCCC(=O)N1CCCOc1ccccc1CN(c1cc(F)ccc1F)S(=O)(=O)c1ccc(Cl)cc1` [Example 704, 4-chloro-N-(2,5-difluorophenyl)-N-{2-[3-(2,6-dioxo-1-piperidinyl)propoxy]benzyl}benzenesulfonamide], the IC50 fell in the range of 100 to 500 nM.

With `O=S(=O)(c1ccc(Cl)cc1)N(Cc1ccccc1OCCCN1CCCCC1)c1ccc(Cl)cc1Cl` [Example 706, 4-chloro-N-(2,4-dichlorophenyl)-N-{2-[3-(1-piperidinyl)propoxy]benzyl}benzenesulfonamide hydrochloride], the half-inhibitory concentration (IC50) lay in the range of 100 to 500 nM.

`CCN(CCOc1ccccc1C(C)N(c1cc(F)ccc1F)S(=O)(=O)c1ccc(Cl)cc1)C(=O)NC(C)(C)C` (stereo not shown) [Example 709, N-[1-(2-{2-[[(tert-butylamino)carbonyl](ethyl)amino]ethoxy}phenyl)ethyl]-4-chloro-N-(2,5 difluorophenyl)benzenesulfonamide]: the IC50 was 100 to 500 nM.

Take `O=S(=O)(c1ccc(Cl)cc1)N(Cc1ccccc1C#CCN1CCCCC1)c1cc(F)ccc1F` [Example 711, 4-chloro-N-(2,5-difluorophenyl)-N-{2-[3-(1-piperidinyl)-1-propynyl]benzyl}benzenesulfonamide hydrochloride]: the IC50 fell in the range of 100 to 500 nM.

On to `O=S(=O)(c1ccc(Cl)cc1)N(Cc1ccccc1OCCCN1CCCC1)c1ccccc1` [Example 718, 4-chloro-N-phenyl-N-{2-[3-(1-pyrrolidinyl)propoxy]benzyl}benzenesulfonamide hydrochloride], for which the half-maximal inhibitory concentration (IC50) was 100 to 500 nM.

For the compound `CC(c1ccccc1OCCN(C)C(=O)NC(C)(C)C)N(c1cc(F)ccc1F)S(=O)(=O)c1ccc(Cl)cc1` (stereo not shown) [Example 724, N-[1-(2-{2-[[(tert-butylamino)carbonyl](methyl)amino]ethoxy}phenyl)ethyl]-4-chloro-N-(2,5-difluorophenyl)benzenesulfonamide], the 50% inhibitory concentration (IC50) fell in the range of 100 to 500 nM.

Regarding `CCN(CCOc1ccccc1C(C)N(c1cc(F)ccc1F)S(=O)(=O)c1ccc(Cl)cc1)C(=O)NC(C)C` (stereo not shown) [Example 725, 4-chloro-N-(2,5-difluorophenyl)-N-{1-[2-(2-{ethyl[(isopropylamino)carbonyl]amino}ethoxy)phenyl]ethyl}benzenesulfonamide], the IC50 fell in the range of 100 to 500 nM.

Consider `CC(C)NC(=O)N(C)CCCOc1ccccc1CN(c1cc(F)ccc1F)S(=O)(=O)c1ccc(Cl)cc1` [Example 734, 4-chloro-N-(2,5-difluorophenyl)-N-(2-{3-[[(isopropylamino)carbonyl](methyl)amino]propoxy}benzyl)benzenesulfonamide], for which the half-maximal inhibitory concentration (IC50) lay within 100 to 500 nM.

On to `CC(c1ccccc1OCCN(C)S(=O)(=O)C(C)C)N(c1cc(F)ccc1F)S(=O)(=O)c1ccc(Cl)cc1` (stereo not shown) [Example 735, 4-chloro-N-(2,5-difluorophenyl)-N-[1-(2-{2-[(isopropylsulfonyl)(methyl)amino]ethoxy}phenyl)ethyl]benzenesulfonamide], for which the IC50 was 100 to 500 nM.

Turning to `O=S(=O)(c1ccc(Cl)cc1)N(Cc1ccccc1OCCCn1ccnc1)c1cc(Cl)ccc1Cl` [Example 740, 4-chloro-N-(2,5-dichlorophenyl)-N-{2-[3-(1H-imidazol-1-yl)propoxy]benzyl}benzenesulfonamide hydrochloride], the IC50 was 100 to 500 nM.

`O=C(c1ccccc1)N1CCCCC1CCOc1ccccc1CN(c1cc(F)ccc1F)S(=O)(=O)c1ccc(Cl)cc1` (stereo not shown) [Example 745, N-{2-[2-(1-benzoyl-2-piperidinyl)ethoxy]benzyl}-4-chloro-N-(2,5-difluorophenyl)benzenesulfonamide]: the IC50 lay in the range of 100 to 500 nM.

With `O=S(=O)(c1ccc(Cl)cc1)N(Cc1ccccc1OCCC1CCCCN1Cc1cc(F)cc(F)c1)c1cc(F)ccc1F` (stereo not shown) [Example 746, 4-chloro-N-(2-{2-[1-(3,5-difluorobenzyl)-2-piperidinyl]ethoxy}benzyl)-N-(2,5-difluorophenyl)benzenesulfonamide], the IC50 fell in the range of 100 to 500 nM.

For the compound `O=S(=O)(c1ccc(Cl)cc1)N(Cc1ccccc1OCCCN1CC=CCC1)c1ccccc1` [Example 749, 4-chloro-N-{2-[3-(3,6-dihydro-1(2H)-pyridinyl)propoxy]benzyl}-N-phenylbenzenesulfonamide hydrochloride], the 50% inhibitory concentration (IC50) fell in the range of 100 to 500 nM.

As to `O=S(=O)(c1ccc(Cl)cc1)N(Cc1ccccc1Cn1ncnn1)c1cc(F)ccc1F` [Example 751, 4-chloro-N-(2,5-difluorophenyl)-N-[2-(2H-tetraazol-2-ylmethyl)benzyl]benzenesulfonamide], the half-inhibitory concentration (IC50) lay in the range of 100 to 500 nM.

The same assay, now with this note: transfected H4 cells stably expressing APP; approx. 16 h incubation; amyloid β in medium by ELISA; read-out: ACTIVITY (IC50, inhibition of amyloid β production).
`C[C@H](c1ccccc1COC(=O)NCc1ccco1)N(c1cc(F)ccc1F)S(=O)(=O)c1ccc(Cl)cc1` [Example 667, 2-((1R)-1-{[(4-chlorophenyl)sulfonyl]-2,5-difluoroanilino}ethyl)benzyl 2-furylmethylcarbamate]: the IC50 lay within 100 to 500 nM.

As for `CC(c1ccccc1OCCCN(C)C(=O)c1cc([N+](=O)[O-])cc([N+](=O)[O-])c1)N(c1cc(F)ccc1F)S(=O)(=O)c1ccc(Cl)cc1` (stereo not shown) [Example 668, N-{3-[2-(1-{[(4-chlorophenyl)sulfonyl]-2,5-difluoroanilino}ethyl)phenoxy]propyl}-N-methyl-3,5-dinitrobenzamide], the 50% inhibitory concentration (IC50) was 100 to 500 nM.

For `C[C@H](c1ccccc1COC(=O)NCc1ccc2c(c1)OCO2)N(c1cc(F)ccc1F)S(=O)(=O)c1ccc(Cl)cc1` [Example 673, 2-((1R)-1-{[(4-chlorophenyl)sulfonyl]-2,5-difluoroanilino}ethyl)benzyl 1,3-benzodioxol-5-ylmethylcarbamate], the half-inhibitory concentration (IC50) lay in the range of 100 to 500 nM.

On to `C[C@H](c1ccccc1CCOC(=O)NC1CCCCC1)N(c1cc(F)ccc1F)S(=O)(=O)c1ccc(Cl)cc1` [Example 685, 2-[2-((1R)-1-{3-[2-(1-{[(4-chlorophenyl)sulfonyl]-2,5-difluoroanilino}ethyl)phenyl]ethyl cyclohexylcarbamate], for which the half-inhibitory concentration (IC50) was in the range of 100 to 500 nM.

Regarding `Cc1cccc(C(=O)NCCCOc2ccccc2C(C)N(c2cc(F)ccc2F)S(=O)(=O)c2ccc(Cl)cc2)c1` (stereo not shown) [Example 687], the IC50 is 100 to 500 nM.

Regarding `C[C@H](c1ccc(F)cc1COC(=O)NCc1ccco1)N(c1cc(F)ccc1F)S(=O)(=O)c1ccc(Cl)cc1` [Example 691, 2-((1R)-1-{[(4-chlorophenyl)sulfonyl]-2,5-difluoroanilino}ethyl)-5-fluorobenzyl 2-furylmethylcarbamate], the IC50 lay in the range of 100 to 500 nM.

On to `CC(c1ccccc1OCCN(C)S(=O)(=O)CC(F)(F)F)N(c1cc(F)ccc1F)S(=O)(=O)c1ccc(Cl)cc1` (stereo not shown) [Example 701, 4-chloro-N-(2,5-difluorophenyl)-N-{1-[2-(2-{methyl[(2,2,2-trifluorophenyl)sulfonyl]amino}ethoxy)phenyl]ethyl}benzenesulfonamide], for which the IC50 lay within 100 to 500 nM.

As for `CCCCC(=O)N(C)CCCOc1ccccc1CN(c1cc(F)ccc1F)S(=O)(=O)c1ccc(Cl)cc1` [Example 717, N-{3-[2-({[(4-chlorophenyl)sulfonyl]-2,5-difluoroanilino}methyl)phenoxy]propyl}-N-methylpentamide], the IC50 was in the range of 100 to 500 nM.

As to `CN(CCCOc1ccccc1CN(c1cc(F)ccc1F)S(=O)(=O)c1ccc(Cl)cc1)C(=O)c1ccc(-c2ccccc2)cc1` [Example 752, N-{3-[2-({[(4-chlorophenyl)sulfonyl]-2,5-difluoroanilino}methyl)phenoxy]propyl}-N-methyl[1,1′-biphenyl]-4-carboxamide], the IC50 is 100 to 500 nM.

For the compound `O=S(=O)(CCOc1ccccc1CN(c1cc(F)ccc1F)S(=O)(=O)c1ccc(Cl)cc1)C1CCCCC1` [Example 754, 4-chloro-N-{2-[2-(cyclohexylfulfonyl)ethoxy]benzyl}-N-(2,5-difluorophenyl)benzenesulfonamide], the half-maximal inhibitory concentration (IC50) lay within 100 to 500 nM.

Regarding `CC(c1ccccc1OCCCNC(=O)c1cccc(F)c1)N(c1cc(F)ccc1F)S(=O)(=O)c1ccc(Cl)cc1` (stereo not shown) [Example 761], the IC50 is 100 to 500 nM.
